According to patent publication US12629468B2, “Devices and methods for delivering synergistic active agents to target sites” (IRRIMAX Corporation, priority 2023, dated 2026):
Where two headings read alike, the source gives them in different places.

Legend:
Assay type in all cases: cell-based
E. coli (ATCC BAA 1427) [1] = test: Minimum inhibitory concentration / growth inhibition by serial 2-fold dilution; details: for Average Growth Inhibition (%): average of triplicate
Procedure: (§1) The minimal inhibitory concentration (MIC, the minimum inhibitory concentration required for 90% growth reduction) of ethyl lauroyl arginate hydrochloride was determined against S. aureus (ATCC 6538), P. aeruginosa (ATCC 15442), and E. coli (ATCC BAA 1427) by serial 2-fold dilution experiments. A solution of chlorhexidine (0.025% w/w) was used as a positive control and comparator.

[2] = system: P. aeruginosa (ATCC 15442); test: as above; details: for Average Growth Inhibition (%): average of triplicate
Procedure: as §1

S. aureus (ATCC 6538) [3] = test: as above; details: for Average Growth Inhibition (%): average of triplicate
Procedure: as §1

E. coli (ATCC BAA 1427) [4] = test: Minimal bactericidal concentration by serial 2-fold dilution
Procedure: as §1, with “bactericidal” for “inhibitory”, “(MBC)” for “(MIC, the minimum inhibitory concentration required for 90% growth reduction)”, “hydrochloride (LAE)” for “hydrochloride”

[5] = system: P. aeruginosa (ATCC 15442); test: as above
Procedure: as §1, with “bactericidal” for “inhibitory”, “(MBC)” for “(MIC, the minimum inhibitory concentration required for 90% growth reduction)”, “hydrochloride (LAE)” for “hydrochloride”

S. aureus (ATCC 6538) [6] = test: as above
Procedure: as §1, with “bactericidal” for “inhibitory”, “(MBC)” for “(MIC, the minimum inhibitory concentration required for 90% growth reduction)”, “hydrochloride (LAE)” for “hydrochloride”

S. aureus = test: Chequerboard assay, FIC and synergy analysis; details: for MIC: Staphylococcus aureus
Procedure: (§2) Chlorhexidine gluconate (CHG) and ethyl lauroyl arginate hydrochloride (LAE) were analyzed by chequerboard assay with each test organism to determine potential additive, synergistic, and antagonistic activity. The test organisms S. aureus, P. aeruginosa, and E. coli were tested at ranges of chlorhexidine gluconate (0.122-15.625 μg/mL, 1.25-160 μg/mL, and 0.125-16 μg/mL, respectively) and ethyl lauroyl arginate hydrochloride (LAE) (0.117-15 μg/mL, 0.4688-60 μg/mL, and 0.2344-30 μg/mL, respectively). FIC was calculated by the following Equation 2: […]

E. coli = test: Chequerboard assay, FIC and synergy analysis; details: for MIC: Escherichia coli
Procedure: as §2

P. aeruginosa = test: Chequerboard assay, FIC and synergy analysis; details: for MIC: Pseudomonas aeruginosa
Procedure: as §2

[7] = 250 μg/mL (0.025% w/w), positive control
[8] = 250 μg/mL (0.025% w/w), positive control, listed as chlorhexidine
[9] = read-out: MIC of CHG in Presence of LAE
[10] = inhibited greater than 90% growth
[11] = 0.46875 μg/mL, average over triplicate
[12] = 0.9375 μg/mL, average over triplicate
[13] = 1.875 μg/mL, average over triplicate
[14] = 3.75 μg/mL, average over triplicate
[15] = 7.5 μg/mL, average over triplicate
[16] = 15 μg/mL, average over triplicate
[17] = 30 μg/mL, average over triplicate
[18] = 60 μg/mL, average over triplicate
[19] = defined as having less than 500 CFU/mL, hydrochloride

N=C(NCCCCCCNC(=N)NC(=N)Nc1ccc(Cl)cc1)NC(=N)Nc1ccc(Cl)cc1 [Chlorhexidine gluconate, reference compound]
inhibition at 250 µg/mL (E. coli (ATCC BAA 1427) [1]; Escherichia coli, BAA1427, 250 μg/mL (0.025% w/w), positive control): 63% | inhibition at 250 µg/mL ([2]; Pseudomonas aeruginosa, ATCC15442, read-out: Average Growth Inhibition (%)): 81% | inhibition at 250 µg/mL (S. aureus (ATCC 6538) [3]; Staphylococcus aureus, ATCC6538, read-out: Average Growth Inhibition (%)): 121% | CFU/mL (E. coli (ATCC BAA 1427) [4]; [7]): 0 CFU/mL | Number of Colonies (E. coli (ATCC BAA 1427) [4]; [7]): 0 | Number of Colonies (E. coli (ATCC BAA 1427) [4]; [8]): no colonies | CFU/mL [5, 7]: 0 CFU/mL | Number of Colonies [5, 7]: 0 | Number of Colonies [5, 8]: no colonies | CFU/mL (S. aureus (ATCC 6538) [6]; [7]): 0 CFU/mL | Number of Colonies (S. aureus (ATCC 6538) [6]; [7]): 0 | Number of Colonies (S. aureus (ATCC 6538) [6]; [8]): no colonies | MIC (S. aureus; read-out: MIC of CHG Alone): 1.95 µg/mL | MIC (S. aureus; [9]): 0.977 µg/mL | MIC (E. coli; read-out: MIC of CHG Alone): 8 µg/mL | MIC (E. coli; [9]): 4 µg/mL | MIC (P. aeruginosa; read-out: MIC of CHG Alone): 40 µg/mL | MIC (P. aeruginosa; [9]): 10 µg/mL

CCCCCCCCCCCC(=O)N[C@@H](CCCN=C(N)N)C(=O)OCC.Cl [ethyl lauroyl arginate hydrochloride]
Average Growth Inhibition (%) (E. coli (ATCC BAA 1427) [1]; 0.46875 μg/mL): 3% | Average Growth Inhibition (%) (E. coli (ATCC BAA 1427) [1]; 0.9375 μg/mL): 6% | Average Growth Inhibition (%) (E. coli (ATCC BAA 1427) [1]; 1.875 μg/mL): 5% | Average Growth Inhibition (%) (E. coli (ATCC BAA 1427) [1]; 3.75 μg/mL): 4% | Average Growth Inhibition (%) (E. coli (ATCC BAA 1427) [1]; 7.5 μg/mL): 4% | Average Growth Inhibition (%) (E. coli (ATCC BAA 1427) [1]; 15 μg/mL): 100% | Average Growth Inhibition (%) (E. coli (ATCC BAA 1427) [1]; 30 μg/mL): 100% | Average Growth Inhibition (%) (E. coli (ATCC BAA 1427) [1]; 60 μg/mL): 99% | Average Growth Inhibition (%) ([2]; 0.46875 μg/mL): 2% | Average Growth Inhibition (%) ([2]; 0.9375 μg/mL): 2% | Average Growth Inhibition (%) ([2]; 1.875 μg/mL): 2% | Average Growth Inhibition (%) ([2]; 3.75 μg/mL): 4% | Average Growth Inhibition (%) ([2]; 7.5 μg/mL): 5% | Average Growth Inhibition (%) ([2]; 15 μg/mL): 2% | Average Growth Inhibition (%) ([2]; 30 μg/mL): 100% | Average Growth Inhibition (%) ([2]; 60 μg/mL): 99% | MIC [2, 10]: 30 µg/mL | Average Growth Inhibition (%) (S. aureus (ATCC 6538) [3]; 0.46875 μg/mL): 7% | Average Growth Inhibition (%) (S. aureus (ATCC 6538) [3]; 0.9375 μg/mL): -1% | Average Growth Inhibition (%) (S. aureus (ATCC 6538) [3]; 1.875 μg/mL): -17% | Average Growth Inhibition (%) (S. aureus (ATCC 6538) [3]; 3.75 μg/mL): 100% | Average Growth Inhibition (%) (S. aureus (ATCC 6538) [3]; 7.5 μg/mL): 101% | Average Growth Inhibition (%) (S. aureus (ATCC 6538) [3]; 15 μg/mL): 101% | Average Growth Inhibition (%) (S. aureus (ATCC 6538) [3]; 30 μg/mL): 97% | Average Growth Inhibition (%) (S. aureus (ATCC 6538) [3]; 60 μg/mL): 93% | MIC (S. aureus (ATCC 6538) [3]; [10]): 3.75 µg/mL | CFU/mL (E. coli (ATCC BAA 1427) [4]; 0.46875 μg/mL): Lawn | Number of Colonies (E. coli (ATCC BAA 1427) [4]; [11]): Lawn (‘Lawn’ indicates too many colonies to accurately count (e.g., greater than 250 colonies on an agar plate)) | CFU/mL (E. coli (ATCC BAA 1427) [4]; 0.9375 μg/mL): Lawn | Number of Colonies (E. coli (ATCC BAA 1427) [4]; [12]): Lawn (‘Lawn’ indicates too many colonies to accurately count (e.g., greater than 250 colonies on an agar plate)) | CFU/mL (E. coli (ATCC BAA 1427) [4]; 1.875 μg/mL): Lawn | Number of Colonies (E. coli (ATCC BAA 1427) [4]; [13]): Lawn (‘Lawn’ indicates too many colonies to accurately count (e.g., greater than 250 colonies on an agar plate)) | CFU/mL (E. coli (ATCC BAA 1427) [4]; 3.75 μg/mL): Lawn | Number of Colonies (E. coli (ATCC BAA 1427) [4]; [14]): Lawn (‘Lawn’ indicates too many colonies to accurately count (e.g., greater than 250 colonies on an agar plate)) | CFU/mL (E. coli (ATCC BAA 1427) [4]; 7.5 μg/mL): Lawn | Number of Colonies (E. coli (ATCC BAA 1427) [4]; [15]): Lawn (‘Lawn’ indicates too many colonies to accurately count (e.g., greater than 250 colonies on an agar plate)) | CFU/mL (E. coli (ATCC BAA 1427) [4]; 15 μg/mL): 0 CFU/mL | Number of Colonies (E. coli (ATCC BAA 1427) [4]; [16]): 0 | CFU/mL (E. coli (ATCC BAA 1427) [4]; 30 μg/mL): 0 CFU/mL | Number of Colonies (E. coli (ATCC BAA 1427) [4]; [17]): 0 | CFU/mL (E. coli (ATCC BAA 1427) [4]; 60 μg/mL): 0 CFU/mL | Number of Colonies (E. coli (ATCC BAA 1427) [4]; [18]): 0 | MBC (E. coli (ATCC BAA 1427) [4]; [19]): 15 µg/mL | CFU/mL ([5]; 0.46875 μg/mL): Lawn | Number of Colonies [5, 11]: Lawn (‘Lawn’ indicates too many colonies to accurately count (e.g., greater than 250 colonies on an agar plate)) | CFU/mL ([5]; 0.9375 μg/mL): Lawn | Number of Colonies [5, 12]: Lawn (‘Lawn’ indicates too many colonies to accurately count (e.g., greater than 250 colonies on an agar plate)) | CFU/mL ([5]; 1.875 μg/mL): Lawn | Number of Colonies [5, 13]: Lawn (‘Lawn’ indicates too many colonies to accurately count (e.g., greater than 250 colonies on an agar plate)) | CFU/mL ([5]; 3.75 μg/mL): Lawn | Number of Colonies [5, 14]: Lawn (‘Lawn’ indicates too many colonies to accurately count (e.g., greater than 250 colonies on an agar plate)) | CFU/mL ([5]; 7.5 μg/mL): Lawn | Number of Colonies [5, 15]: Lawn (‘Lawn’ indicates too many colonies to accurately count (e.g., greater than 250 colonies on an agar plate)) | CFU/mL ([5]; 15 μg/mL): Lawn | Number of Colonies [5, 16]: Lawn (‘Lawn’ indicates too many colonies to accurately count (e.g., greater than 250 colonies on an agar plate)) | CFU/mL ([5]; 30 μg/mL): 0 CFU/mL | Number of Colonies [5, 17]: 0 | CFU/mL ([5]; 60 μg/mL): 0 CFU/mL | Number of Colonies [5, 18]: 0 | MBC [5, 19]: 30 µg/mL | CFU/mL (S. aureus (ATCC 6538) [6]; 0.46875 μg/mL): Lawn | Number of Colonies (S. aureus (ATCC 6538) [6]; [11]): Lawn (‘Lawn’ indicates too many colonies to accurately count (e.g., greater than 250 colonies on an agar plate)) | CFU/mL (S. aureus (ATCC 6538) [6]; 0.9375 μg/mL): Lawn | Number of Colonies (S. aureus (ATCC 6538) [6]; [12]): Lawn (‘Lawn’ indicates too many colonies to accurately count (e.g., greater than 250 colonies on an agar plate)) | CFU/mL (S. aureus (ATCC 6538) [6]; 1.875 μg/mL): Lawn | Number of Colonies (S. aureus (ATCC 6538) [6]; [13]): Lawn (‘Lawn’ indicates too many colonies to accurately count (e.g., greater than 250 colonies on an agar plate)) | CFU/mL (S. aureus (ATCC 6538) [6]; 3.75 μg/mL): 500 CFU/mL | Number of Colonies (S. aureus (ATCC 6538) [6]; [14]): 5 | CFU/mL (S. aureus (ATCC 6538) [6]; 7.5 μg/mL): 0 CFU/mL | Number of Colonies (S. aureus (ATCC 6538) [6]; [15]): 0 | CFU/mL (S. aureus (ATCC 6538) [6]; 15 μg/mL): 0 CFU/mL | Number of Colonies (S. aureus (ATCC 6538) [6]; [16]): 0 | CFU/mL (S. aureus (ATCC 6538) [6]; 30 μg/mL): 0 CFU/mL | Number of Colonies (S. aureus (ATCC 6538) [6]; [17]): 0 | CFU/mL (S. aureus (ATCC 6538) [6]; 60 μg/mL): 0 CFU/mL | Number of Colonies (S. aureus (ATCC 6538) [6]; [18]): 0 | MBC (S. aureus (ATCC 6538) [6]; [19]): 3.75 µg/mL | MIC of LAE Alone (S. aureus; alone): 3.75 µg/mL | MIC of LAE in Presence of CHG (S. aureus; in presence of CHG): 1.875 µg/mL | MIC of LAE Alone (E. coli; alone): 15 µg/mL | MIC of LAE in Presence of CHG (E. coli; in presence of CHG): 3.75 µg/mL | MIC of LAE Alone (P. aeruginosa; alone): 30 µg/mL | MIC of LAE in Presence of CHG (P. aeruginosa; in presence of CHG): 7.5 µg/mL
